Laboratory results as given in patent US20260022134A1, “N-HETEROCYCLE-CONTAINING BORIC ACID COMPOUND AND PREPARATION METHOD AND APPLICATION THEREOF” (Hangzhou City University, priority 2022, published 2026).

Legend:
Format in all cases: cell-based
glioma cells U87 = assay: Flow cytometry cell cycle analysis (PI staining); conditions: cells U87, 24 h treatment; increased from 11.99%
Procedure: (§1) The cells of the logarithmic phase were taken and dissociated by 0.25% trypsin-EDTA and blown into single cells, and inoculated into the 6-well plate with a density of 2000 to 3000 pcs/well, and gently shaken to disperse the cells uniformly and then placed into 5% CO2, 37° C. incubator for incubation. After 24 h, the original culture medium was discarded and a fresh cell culture medium containing drugs of corresponding concentrations was then added; after the cells were incubated for 24 h, the cells were dissociated by 0.25% trypsin-EDTA and cleaned twice with 1 mL of precooled PBS and then re-suspended with 250 μl PBS and slowly added dropwise into 750 μl of precooled 75% ethyl alcohol, and then fixed at the temperature of −20° C. overnight. […] Propidium iodide (PI) with a final concentration of […] was added for staining of 1 h free from light at room temperature, and then filtered by gauze and then transferred to a flow tube and detected and analyzed by a flow cytometer.
(§2) In order to determine the mechanism of the growth inhibition effect of (3-((5-chloro-4-(1H-pyrrolo[2,3-b]pyridin-3-yl)pyrimidin-2-yl)amino)phenyl)boric acid on the cells U251 and U87, after 24 h following the treatment with different concentrations of (3-((5-chloro-4-(1H-pyrrolo[2,3-b]pyridin-3-yl)pyrimidin-2-yl)amino)phenyl)boric acid, the cell cycle was analyzed and evaluated by flow cytometry.

glioma cells U251 = assay: Flow cytometry cell cycle analysis (PI staining); conditions: cells U251, 24 h treatment; increased from 14.70%
Procedure: as §1, §2

glioblastoma cells A172 [1] = assay: SRB colorimetric analysis, cell survival/proliferation
Procedure: (§3) After passage to the logarithmic phase, the cells were dissociated by 0.25 trypsin-EDTA and blown into single cells, and with a final cell concentration adjusted to […], inoculated into a 96-well plate with each well 100 μl (edge wells were filled with sterile PBS), 5% CO2, and 37° C. incubation. After 24 h (until a single layer of cells were spread to 30% to 50% of the well bottom), a cell culture solution containing drugs of corresponding concentrations was added and incubated for 24, 48 and 72 h in a 5% CO2, 37° C. incubator. Each drug concentration was provided with three parallel wells. The cells were medicate-cultured for 24, 48 and 72 h and then fixed by trichloroacetic acid (TCA). Each well of the cells was fixed by a pre-cooled 15% TCA liquid 100 μl, and then the 96-well plate was moved to 4° C. and stood for 4 h. The fixing liquid was discarded and the 96 wells were washed five times with sterile triple-distilled water and spin-dried and air-dried in 37° C. drying oven. Each well was added with 100 μl 0.4% SRB solution, and kept free from light and stood for 30 min at room temperature. The SRB not combined with proteins was cleaned with 1% glacial acetic acid and air-dried in 37° C. drying oven. The combined SRB was dissolved by 100 μl 10 mM non-buffer Tris alkaline solution (pH 10.5), and oscillated and mixed uniformly and then measured for the OD value on an enzyme-linked immuno detector. By blank control zero setting, the OD value of each well was measured at the position of a wavelength of 570 nm. The obtained growth inhibition rate of the tumor cells was defined as an in vitro inhibition rate of the drug on the tumor cells. The inhibition rate is […].
(§4) Firstly, we evaluated the growth inhibition effect of (3-((5-chloro-4-(1H-pyrrolo[2,3-b]pyridin-3-yl)pyrimidin-2-yl)amino)phenyl)boric acid on the MG cells U251A172 and U87 of three different glioblastoma cell series. With different concentrations of (3-((5-chloro-4-(1H-pyrrolo[2,3-b]pyridin-3-yl)pyrimidin-2-yl)amino)phenyl)boric acid, the cells U251, A172 and U87 were treated for 24 h, 48 h and 72 h and then based on the SRB detection method, the survival rate of the cells treated by (3-((5-chloro-4-(1H-pyrrolo[2,3-b]pyridin-3-yl)pyrimidin-2-yl)amino)phenyl)boric acid was detected. […] The cytotoxic effect of the U87 was more obvious than those of U251 and A172.

glioblastoma cells U87 = assay: as above
Procedure: as §3, §4

glioblastoma cells U251 [2] = assay: as above
Procedure: as §3, §4

glioblastoma cells A172 [3] = assay: Cell colony-formation assay; conditions: cells A172, 14 days, different concentrations
Procedure: (§5) The cells of the logarithmic phase were taken and dissociated by 0.25% trypsin-EDTA and blown into single cells, and inoculated into the 6-well plate with a density of 2000 to 3000 pcs/well, and gently shaken to disperse the cells uniformly and then placed into 5% CO2, 37° C. incubator for incubation. After 24 h, the original culture medium was discarded and a fresh cell culture medium containing drugs of corresponding concentrations was then added, and the cells then were incubated in the incubator for about 14 days. During this period, the fresh culture medium containing the drugs of corresponding concentrations was replaced every two or three days. Frequent observation should be made to ensure that when a macroscopic colony appears in the culture plate, the culture was ended. The supernatant was discarded and cleaning was performed carefully twice with PBS. […] Finally, the number of the formed colonies was calculated.
(§6) In order to determine the effect of (3-((5-chloro-4-(1H-pyrrolo[2,3-b]pyridin-3-yl)pyrimidin-2-yl)amino)phenyl)boric acid on the cell colony formation ability of the glioblastoma, we treated the cells U251 and A172 with different concentrations of (3-((5-chloro-4-(1H-pyrrolo[2,3-b]pyridin-3-yl)pyrimidin-2-yl)amino)phenyl)boric acid and 14 days later, determined the cell colony formation ability by colony determination.

glioblastoma cells U251 [4] = assay: Cell colony-formation assay; conditions: cells U251, 14 days, different concentrations
Procedure: as §5, §6

[5] = tested on: p-Stat3, p-Akt, c-Myc, Cyclin B1, p-Erk1/2 in cells U87; assay: Western blot of cell protein expressions; conditions: cells U87, after 24 h treatment
Procedure: (§7) The cell supernatant was discarded and the cells were washed twice with PBS; based on cell confluence, a corresponding amount of Loading buffer was added, and stirred by a pipette tip while fully covered, and then collected to a centrifuge tube and centrifuged and then placed into a high-temperature metal bath of 100° C. for denaturation of 10 min, then cooled on ice and centrifuged and stored at the temperature of −20° C. for later use in the Western blot. The loading volume was adjusted by Western block pre-experiment to ensure the internal control proteins were uniform. • 2) BSA quantitative method
(§8) The cells treated by the trypsin dissociation and collection assay were centrifuged for 4 min at the rotation speed of 1500 rpm/min. The supernatant was discarded and the cells were re-suspended and washed with the pre-cooled PBS and then transferred to al. 5 mL Eppendorf tube and then centrifuged again and the supernatant was all discarded. Cell lysis was carried out on ice, and based on a precipitation amount, a proper amount of RIPA lysis solution was added and blown uniform by the pipette and then stood on ice. The cells were whirled or dispersed once every other 10 min, and 30 min later, the cells were put into a pre-cooled 4° C. centrifugal machine and centrifuged for 30 min at the rotation speed of 12000 rpm/min. The supernatant was sucked to a new Eppendorf tube to obtain a protein sample solution.
(§9) A standard protein BSA was selected for making a standard curve and the BSA was sequentially half-diluted by 10 factors. The protein sample was diluted with deionized water by 10 factors and 5 μL of diluted sample was sucked to a new Eppendorf tube and then 200 μL of BCA reagent was added to each tube (liquid A: liquid B=50:1) and placed in a 37° C. drying oven for incubation of 30 min After completion of the reaction, the liquid was whirled uniformly and 100 μL was sucked to a 96-well plate and measured for the OD value at the position of the wavelength 562 nm. Based on the standard curve, quantification was performed to sub-package the protein sample and then 5×Loading buffer was added for denaturation of 10 min at the temperature of 100° C., and cooled and centrifuged and then stored at the temperature of −20° C. for later use. • 3) Gel preparation: based on the size of target protein molecules, a desired gel was prepared and then solidified and then put into deionized water and stored in 4° C. refrigerator for later use. • 4) Electrophoresis: before electrophoresis, the protein sample was heated for 3 to 5 min at the temperature of 100° C. and then cooled and centrifuged and then loaded. A protein marker was added before the sample and then equal-volume or equal-quantity loading was performed in a sequence. After completion of loading, constant-voltage electrophoresis was performed with the voltage adjusted to 70V. Electrophoresis was stopped when the sample runs to a position 1 cm from the bottom glass plate, and transfer was performed. • 5) Transfer: 1×Transfer buffer 1000 mL containing 10% anhydrous ethanol was prepared, and the anhydrous ethanol activates PVDF membrane for 1 min and then the membrane was put into a Trans Buffer solution. Based on the target protein molecules, gel cutting was performed, and transfer was carried out based on black gel and white membrane. Under the condition of ice water bath, 330 mA constant-current transfer was performed for 70 min. • 6) Blocking: after transfer completion, the membrane was put into 5% skimmed mil powder solution and the shaker was blocked for 1 h at room temperature. • 7) Primary antibody incubation: a corresponding primary antibody was prepared for incubation of a target strip. The primary antibody was put into a 4° C. refrigerator and incubated by the shaker overnight. […]

[6] = tested on: p-Stat3, p-Akt, c-Myc, Cyclin B1, p-Erk1/2 in cells U251; assay: Western blot of cell protein expressions; conditions: cells U251, after 24 h treatment
Procedure: as §7, §8, §9

glioblastoma cells A172 [7] = assay: Transwell cell migration assay; conditions: cells A172, 24 h, different concentrations
Procedure: (§10) The cells of the logarithmic phase were taken and dissociated by 0.25% trypsin-EDTA and blown into single cells. 200 μL of serum-free culture medium containing 5×10^4 cells was sucked and added into the Transwell upper chamber and 600 μL of culture medium containing 20% FBS was transferred to the Transwell lower chamber and drugs of corresponding concentrations were added to the upper and lower chambers. Culture was performed for 24 h in the cell incubator. In each well of the 24-well plate, 300 μL of 1% crystal violet methanol solution was added. After the culture medium was sucked and discarded, the Transwell chamber was placed into crystal violet and fixed free from light at room temperature and stained for 30 min. The chamber was picked by tweezers into the PBS buffer solution and washed slowly, and the cells and surplus crystal violet in the upper chamber were gently wiped with a cotton swab and then photographed under microscope for counting to calculate the number of the migrating cells of each group. […]

glioblastoma cells U251 [8] = assay: Transwell cell migration assay; conditions: cells U251, 24 h, different concentrations
Procedure: as §10

## OB(O)c1cccc(Nc2ncc(Cl)c(-c3c[nH]c4ncccc34)n2)c1 [(3-((5-chloro-4-(1H-pyrrolo[2,3-b]pyridin-3-yl)pyrimidin-2-yl)amino)phenyl)boric acid]
Glioma cells U87
  distribution of the G2/M phase: 42.62%
Glioma cells U251
  distribution of the G2/M phase: 40.61%
Glioblastoma cells A172 [1]; Homo sapiens, A 172, cells A172 treated for 72 h
  IC50: 480 nM
Glioblastoma cells A172 [1]; cells A172, 24 h, 48 h and 72 h, different concentrations
  cytotoxic effect (survival rate, SRB): significant cytotoxic effect
Glioblastoma cells U87; cells U87, 24 h, 48 h and 72 h, different concentrations
  cytotoxic effect (survival rate, SRB): significant cytotoxic effect
Glioblastoma cells U87; cells U87 treated for 72 h
  IC50: 170 nM
Glioblastoma cells U251 [2]; Homo sapiens, U-251, cells U251 treated for 72 h
  IC50: 380 nM
Glioblastoma cells U251 [2]; cells U251, 24 h, 48 h and 72 h, different concentrations
  cytotoxic effect (survival rate, SRB): significant cytotoxic effect
Glioblastoma cells A172 [3]
  number of cell colonies: reduced the number of the cell colonies in a dose-dependent way
Glioblastoma cells U251 [4]
  number of cell colonies: reduced the number of the cell colonies in a dose-dependent way
[5]
  Cyclin B1 protein expression: decreased
  c-Myc protein expression: decreased
  p-Akt protein expression: decreased
  p-Erk1/2 protein expression: increased
  p-Stat3 protein expression: decreased
[6]
  Cyclin B1 protein expression: decreased
  c-Myc protein expression: decreased
  p-Akt protein expression: decreased
  p-Erk1/2 protein expression: increased
  p-Stat3 protein expression: decreased
Glioblastoma cells A172 [7]
  cell migration (number of migrating cells): significant cell migration inhibition effect
Glioblastoma cells U251 [8]
  cell migration (number of migrating cells): significant cell migration inhibition effect
